Measured values as given in paper PMC8592623, “Enhanced oral bioavailability of koumine by complexation with hydroxypropyl-β-cyclodextrin: preparation, optimization, ex vivo and in vivo characterization” (Drug Delivery, 2021).
In brackets after ≈: the same amount, converted by molar mass.

What was measured:
[1] = test system: rat intestines (everted gut sac: duodenum, jejunum, ileum, colon); assay: Ex vivo everted gut sac experiments; type: in vitro ADME
Method: The protocol of the animal study was approved by the Institutional Animal Care and Use Committee of Fujian Medical University (permit number: SYXK (Min) 2018-0001), China. Male SD rats weighing 220–250 g were fasted overnight before the experiment and with free access to water. The everted gut sac method was carried out as in previously published reports with minor modifications (Tambe et al. [2019]). Rats were anesthetized and sacrificed, and the intestinal segments of interest were identified and dissected (duodenum, starting 1 cm from the stomach; jejunum, 10–18 cm from the stomach; ileum, starting 8 cm above the cecum; colon, 5 cm below the cecum) (Rong et al. [2013]).
Each obtained intestinal segment was immediately washed with ice-cold Krebs-Ringer (K-R) solution, and then turned out with a glass rod, and one end was ligated with a thread. After inserting the glass tube, the other open end of the everted sacs was also tightened. Then blank K-R solution (2.5 mL) was added to the everted gut sacs. The everted segments were preincubated in 50 mL of K-R solution at 37 °C for 5 min. […] After the experiment, the length of each intestinal segment was accurately measured, and the concentration of KME was measured by HPLC. The apparent permeability coefficient (Papp) values of KME were calculated by the following equation (Tambe et al. [2019]): […]

[2] = Cell viability study (CCK-8 assay); type: cell-based; details: human, Caco-2, 5–100 μg/mL, read-out: viability of Caco-2 cells
Method: The cytotoxicity of KME and KME/HP-β-CD was evaluated in Caco-2 cells using the cell counting kit-8 (CCK-8) assay. Caco-2 cells were cultured in DMEM containing 20% FBS and incubated at 37 °C with 5% CO2. Caco-2 cells (1 × 10^4 cell/well) were seeded in 96-well plates and incubated for 24 h. Then, 100 μL of fresh medium containing KME or KME/HP-β-CD (5–100 µg/mL) was added. After 24 h, the culture medium was changed with CCK-8 solution and the samples were incubated for another 2 h. The optical density (OD) was read at 490 nm (BioTek Instruments, Winooski).

[3] = In vitro drug release, dialysis bag diffusion method; type: physicochemical; details: pH 6.8 phosphate buffer, 37 °C
Method: A dialysis bag diffusion method was used to evaluate in vitro drug release profiles of both KME and KME/HP-β-CD (Zhao et al. [2021]). 2 mg of KME was dispersed in water, and then transferred to a dialysis bag and placed in a beaker containing 40 mL of pH 6.8 phosphate buffer. The study was carried out at 37 ± 0.5 °C and a magnetic stirring speed of 100 rpm. Aliquots of approximately 4 mL were taken out at predetermined time intervals (10 min, 15 min, 30 min, 1 h, 2 h, 3 h, and 6 h) and replaced by the same volume of fresh buffer to maintain a constant volume of dissolution media during sampling. The samples were filtered and analyzed by HPLC.

[4] = Phase solubility study (Higuchi and Connors); type: physicochemical
Method: The phase solubility studies were carried out according to the method of Higuchi and Connors (Jansook et al. [2018]; Higuchi & Connors [1965]). Briefly, an excess of KME was added to 200 μL aqueous solutions of different HP-β-CD concentrations (1, 2, 4, 6, 8, and 10 mM). All samples were shaken at 25 °C and 100 rpm for 72 h until reaching equilibrium. Subsequently, the samples were withdrawn and filtered through a 0.45 µm membrane to remove undissolved KME. The concentration of KME in the HP-β-CD solutions was determined by an HPLC method, and the analyses were performed in triplicate (n = 3). The apparent stability constants (Ks) were calculated by the following equation (Nair et al. [2014]; Pinto et al. [2020]): Ks = slope/So (1-slope), where So represents the intrinsic solubility of the drug, and the slope is the slope of the linear KME-CD phase solubility diagram.

[5] = Caco-2 permeability study; type: in vitro ADME; details: human, 50 μg/mL KME equivalent
Method: Caco-2 cells were seeded at a density of 5 × 10^5 cells/well on top of 12-well Transwell® polycarbonate filters, and cultured in a 5% CO2 incubator at 37 °C for 21 days. The medium was changed every 2 days in the first week, and then every day for the next two weeks. At the end of 21 days, a Millicell-ERS epithelial voltmeter (Merck, USA) was used to analyze the transepithelial electrical resistance (TEER) value of Caco-2 cells. Only monolayers with TEER values higher than 600 Ω·cm^2 can be used in subsequent transport experiments (Chen et al. [2018]).
To investigate the permeability of KME and KME/HP-β-CD inclusion complexes in Caco-2 cells, the apical to basal (A-B) and basal to apical (B-A) transport of KME was measured. After preincubation for 30 min with blank HBSS, 0.5 mL of HBSS medium containing KME or KME/HP-β-CD (equivalent KME concentration of 50 μg/mL) was added to the apical side in the A-B direction experiments, and 1.5 mL of fresh HBSS was added to the basolateral side of the inserts as the acceptor phase. In contrast, for the B-A direction experiments, 1.5 mL of HBSS medium containing KME or KME/HP-β-CD (equivalent KME concentration of 50 μg/mL) was added to the basolateral side, and 0.5 mL of fresh HBSS was added to the apical side of the inserts as the acceptor phase. The plates were incubated in a shaker at 37 °C. 100 μL of the sample were taken from the acceptor side at predetermined time intervals (30, 60, 90, and 120 min) and replaced by the same volume of fresh HBSS to maintain a constant volume. Finally, the obtained samples were analyzed by HPLC. The Papp values (cm/s) were determined using the following equation (McCartney et al. [2019]; Patel & Sawant [2019]): Papp=(dQ/dt)/(A×C0),where dQ/dt is the steady−state flux, A is the surface area of the monolayer (1.12 cm^2), and C0 is the donor concentration (50 μg/mL). TEER (Ω·cm^2)=(TEER (Ω) –TEER blank (Ω)) × A(cm^2)
Here, TEER (Ω), Caco-2 monolayers; TEER blank (Ω), the insert without cells; A (cm^2), 1.12 cm^2.

[6] = design: method as in Wang et al. [2019]; details: from parameters of published reports; ref Wang et al. [2019]; cited from earlier work
[7] = In vivo pharmacokinetics study after oral administration; details: oral gavage 12 mg/kg, male SD rats, n = 6; for AUC0–12 (AUC0-t): 12 mg/kg
Method: The in vivo pharmacokinetic study was approved by the Institutional Animal Ethical Committee, Fujian Medical University, China. Male SD rats (200 ± 20 g) have fasted for 12 h with free access to water before oral administration. The rats were divided randomly into two groups (n = 6) and received KME or KME/HP-β-CD by oral gavage at a drug dose of 12 mg/kg. The KME powder and KME/HP-β-CD were dispersed in deionized water containing 0.1% sodium carboxymethylcellulose (CMC-Na). Blood samples were collected at predetermined intervals (0.05, 0.1, 0.16, 0.5, 1, 3, 6, 9, and 12 h) from the retroorbital venous sinus, and placed in heparinized anticoagulant tubes. After centrifugation at 4,000 rpm for 10 min at 4 °C, the plasma was separated and stored at −80 °C until UPLC-MS/MS analysis.
Plasma samples were prepared by the protein precipitation method (Chen et al. [2013]). Briefly, an aliquot of 50 μL plasma sample and 200 μL of acetonitrile containing 10 ng/mL gelsemine (internal standard, IS) were added to a centrifuge tube. The mixture was vortexed for 5 min and centrifuged at 18,000 rpm for 10 min at 4 °C. Then the supernatant was transferred and injected into the UPLC-MS/MS system for analysis. Chromatographic separation was performed using a UPLC instrument (Agilent 1290, Agilent Technologies, USA), equipped with a mass spectrometer (QTRAP® 5500, AB SCIEX, USA). The mass spectrometer detector was performed with multiple reactions monitoring scan mode at m/z 307.2 → 180.1 for KME and m/z 323.1 → 236.1 for IS. More detailed information about UPLC-MS/MS is provided in the supplementary material. The main pharmacokinetic parameters such as T1/2, Cmax, Tmax, and area under the curve (AUC), were determined using the non-compartmental model with DAS 3.2.1 software. The relative bioavailability F was calculated by the following equation: F(%) =(AUC0–t (inclusion complexes)/AUC0–t(KME)) × 100%

[8] = previously investigated in our laboratory; cited from earlier work
[9] = introduction, no reference given; cited from earlier work
[10] = Saturation solubility in distilled water; type: physicochemical; details: 37 °C, saturated solution
Method: Excess KME and KME/HP-β-CD were added to distilled water to obtain a supersaturated solution (Arya & Raghav [2021]). The samples were shaken at 37 °C for 24 h and 100 rpm. After centrifugation, the supernatants were filtered through a 0.45 μm membrane and the solubility was determined (n = 3) with the validated HPLC method.

[11] = previously investigated in our laboratory; cited from earlier work; remark: listed apart in the source

In the case of `C=C[C@@]12CN(C)[C@H]3C[C@]14C(=Nc1ccccc14)[C@H]1C[C@@H]2[C@@H]3CO1` [KME, Koumine], the “order of absorption flux in the intestinal segments” value ([1]; 100 μg/mL, up to 120 min) is reported as “ileum > duodenum > jejunum > colon”, the “KME absorption in colon segment with verapamil versus without” value ([1]; colon, verapamil 100 μg/mL (inhibitor of P-gp)) is reported as “no significant difference” and the viability at 24 h [2] is reported as over 90%. For the same compound, the “release rate in the first 1 h” value ([3]; 1 h) was 40%, the “release rate within 6 h” value ([3]; 6 h) was 70% and the solubility at 72 h ([4]; 10 mM HP-β-CD aqueous solution, 25 °C, 72 h, read-out: solubility of KME at 10 mM HP-β-CD) was 1810 µg/mL (≈ 5910 µM). For the same compound, the “increase of KME solubility at 10 mM HP-β-CD” value ([4]; 10 mM HP-β-CD versus water) was 2.59 fold, the solubility thermodynamic at 72 h ([4]; water, 25 °C, 72 h, no HP-β-CD, read-out: equilibrium solubility of KME in water) was 700 ± 20 µg/mL (≈ 2280 µM) and the efflux ratio at 120 min, 50 µg/mL ([5]; read-out: efflux ratio (B-A permeability/A-B permeability)) was 1.74. The Papp A→B at 120 min, 50 µg/mL ([5]; apical to basal, 120 min) was 7.78 ± 2.01 ×10⁻⁶ cm/s, the Papp B→A at 120 min, 50 µg/mL ([5]; basal to apical, 120 min) was 13.5 ± 1.72 ×10⁻⁶ cm/s and the “absolute bioavailability (Fabs)” value [6] was 1%. For the same compound, the “AUC0–12 (AUC0-t)” value ([7]; listed as KME suspension) was 72.50 ± 15.25 ng·h/mL, the “AUC0–12 (AUC0-t)” value ([7]; listed as Raw KME) was 26.48 ± 17.80 ng·h/mL and the AUC(0-inf) ([7]; rat, plasma) was 30.2 ± 16.6 ng·h/mL. For the same compound, the Cmax ([7]; rat, plasma) was 22.8 ± 15.6 ng/mL, the Tmax ([7]; rat, plasma) was 19.8 ± 12 min and the half-life ([7]; rat, plasma) was 51.6 ± 7.2 min. The “absolute bioavailability (Fabs) in rats” value [8] was 14.30%, the solubility in water [9] was under 1000 µg/mL and the solubility at 24 h [10] was 700 µg/mL (≈ 2280 µM). The “absolute bioavailability (Fabs) in beagle dogs” value [11] was 5.67%.
